Reference: patent US9062050B2, “Inhibitor of JAK1 and JAK2” (Eli Lilly and Company, priority 2012, dated 2015)

Molecular target: T1, JAK3 (Homo sapiens, UniProt P52333)
T1 sequence (P52333 1-1124): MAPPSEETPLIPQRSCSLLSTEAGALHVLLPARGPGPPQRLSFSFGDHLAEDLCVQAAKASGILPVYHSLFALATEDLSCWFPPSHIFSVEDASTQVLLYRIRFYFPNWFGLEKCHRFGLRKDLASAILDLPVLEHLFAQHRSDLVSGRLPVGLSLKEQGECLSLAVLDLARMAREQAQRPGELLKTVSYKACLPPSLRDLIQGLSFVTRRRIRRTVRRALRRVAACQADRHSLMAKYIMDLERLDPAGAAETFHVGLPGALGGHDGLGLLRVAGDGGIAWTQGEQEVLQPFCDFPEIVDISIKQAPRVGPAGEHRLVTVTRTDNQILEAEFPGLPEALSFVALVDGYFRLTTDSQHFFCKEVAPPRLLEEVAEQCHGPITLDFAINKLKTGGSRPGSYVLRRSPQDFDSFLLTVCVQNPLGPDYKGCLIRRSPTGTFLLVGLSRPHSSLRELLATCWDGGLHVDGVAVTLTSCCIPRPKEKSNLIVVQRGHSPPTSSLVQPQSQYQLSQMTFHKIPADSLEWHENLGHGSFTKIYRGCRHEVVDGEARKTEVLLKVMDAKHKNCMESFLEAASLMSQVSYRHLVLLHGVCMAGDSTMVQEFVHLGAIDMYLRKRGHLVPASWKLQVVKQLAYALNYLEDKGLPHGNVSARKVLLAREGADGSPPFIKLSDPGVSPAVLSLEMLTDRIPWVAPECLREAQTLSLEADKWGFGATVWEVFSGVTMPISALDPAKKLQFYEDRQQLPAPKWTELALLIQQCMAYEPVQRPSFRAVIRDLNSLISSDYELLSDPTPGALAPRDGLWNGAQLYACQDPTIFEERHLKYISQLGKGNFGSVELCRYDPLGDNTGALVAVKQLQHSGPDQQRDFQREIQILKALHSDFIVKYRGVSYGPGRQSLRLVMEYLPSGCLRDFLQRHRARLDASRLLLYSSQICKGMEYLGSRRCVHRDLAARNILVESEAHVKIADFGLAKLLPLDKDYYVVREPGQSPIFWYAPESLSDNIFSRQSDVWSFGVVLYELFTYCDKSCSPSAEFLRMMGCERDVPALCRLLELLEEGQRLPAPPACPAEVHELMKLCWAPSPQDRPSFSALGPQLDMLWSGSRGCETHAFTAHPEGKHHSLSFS
Experiment: JAK3 IL-2-NK-92/pSTAT5 cell-based assay (Cellomics ArrayScan HCS)
Design: host or cells: NK-92 (natural killer) cells
Text: IL-2 activates the JAK3 pathway in natural killer (NK) cells to drive the NK and CD8 lymphocyte proliferation. Therefore, IL-2 stimulated NK92/pSTAT5 cell-based assay enables the evaluation of the JAK3 cellular activity of JAK compounds in vitro.
NK-92 (natural killer) cells (ATCC, Manassas, Va.) are maintained in minimum essential medium (MEM) Alpha with 15% fetal bovine serum, 15% Horse Serum and 1× antibiotic/antimycotic (Invitrogen, Carlsbad, Calif.). The medium is supplemented with IL-2 (R&D systems, Minneapolis, Minn.) for a final concentration of 4 ng/mL. Cells are kept at 37° C. with 5% CO2. Cells are starved in serum free medium to remove endogenous growth factors. NK-92 cells are counted and collected to seed 2×10^7 cells per 96-well plate at a density of 2×10^5 cells per well. The cells are rinsed twice with unsupplemented MEM Alpha (MEM Alpha) before suspending cells at a final concentration of 8×10^5 cells/mL in MEM Alpha with 0.6% serum (0.3% FBS, 0.3% horse serum). The diluted cells are added back to tissue culture flasks and incubated overnight at 37° C. Test compound is prepared in 100% DMSO at 10 mM concentration. […] An aliquot of 200 μL of 1 to 10 dilution of Mouse anti-pSTAT5 (pY694) Alexa Fluor 647® in fluorescence activated cell sorting (FACS) buffer is added to the cells. […] Mean fluorescent intensity data are collected and analyzed using Cellomics Arrayscan® VTi. […]

SMILES: Cc1cc(Nc2ccc3ncn([C@@H]4CCc5ccc(F)cc54)c3n2)[nH]n1.Cl.Cl [Example 1, 3-[(1R)-6-fluoro-2,3-dihydro-1H-inden-1-yl]-N-(3-methyl-1H-pyrazol-5-yl)-3H-imidazo[4,5-b]pyridin-5-amine dihydrochloride]
- IC50 (NK-92 cells, IL-2 at 0.5 ng/mL, relative IC50, n=61, read-out: IC50, inhibits JAK3 (pSTAT5)): 0.228 µM
- ratio of JAK3/JAK2 IC50 (from the two cell-based assays (EPO-TF1/pSTAT5 and IL-2-NK-92/pSTAT5)): more than six-fold
